We go through one compound from PMC8227162 (Molecules, 2021).

As a reminder, the IC50 is the concentration at which inhibition is half-maximal.

Entries after “also recorded” stand apart in the source; their conditions may differ. Counter-ions that a name gives are not always drawn.

Series [1] relates to 4T1 tumors. Nature of the series: In vivo antitumor effects in 4T1 tumor-bearing Balb/c mice. As to conditions: 3 mg/kg (TFA equivalent) IV, 9-day treatment. As to the method: Female Balb/c mice (6–12 weeks old, mean weight = 20–25 g) were supplied by the Laboratory Animal Care Facility of the Arabian Gulf University (AGU), Bahrain. […] All animal experiments were performed based on the rules and regulations of the Arabian Gulf University Animal Care Policy and approved by the Research and Ethics Committee, REC Approval No: G-E001-PI-12/16.
To propagate the tumor, female Balb/c mice (n = 3) were injected with one million 4T1 mammary carcinoma cells bilaterally (right and left side) on the flanks. The tumor was then collected and cut down into small pieces with an average size of 1–3 mm^3 in sterile PBS to sustain tumor viability. Following this, 5 mice of each group were shaved, anesthetized, and inoculated with one small piece of the 4T1 tumor tissue subcutaneously. […] The first day of drug administration was set as Day 0. Tumor volume was measured by a manual caliber, and the volume was estimated by using the formula:V (mm^3) = ((transverse section (W)^2 × longitudinal cross section (L))/2)
Tumor volumes were normalized by using the initial tumor volume and represented as the mean ± standard error of the mean (SEM). Additionally, the body weight of mice was measured every day and normalized daily for 9 days.

For series [2], the system named is MDA-MB-468 cells. Nature of the series: SRB cytotoxicity assay, MDA-MB-468 cells. In kind it is cell-based. As to conditions: Homo sapiens, 48 h incubation (Figure 3 legend: 72 h). How it is done:
(§1) MDA-MB-231, MDA-MB-468, 4T1, and MCF7 cell lines were purchased from American Type Culture Collection (ATCC) (Manassas, VA, USA). RPMI medium supplemented with 5% fetal bovine serum (FBS) was used to culture the cell lines while being maintained in a humidified atmosphere at 37 °C, 5% CO2.
(§2) Cytotoxicity was assessed after 48 h incubation using sulforhodamine B (SRB) assay as described previously. Cells were fixed using 10% trichloroacetic acid and stained with SRB. The cytotoxicity experiments were performed in triplicate (n = 3). The 50% growth inhibition (IC50) was then assessed by using SRB assay after 48 h incubation. Data are represented as the mean ± SD of three independent experiments of each cell line.
In general terms: Sulforhodamine B stains cellular protein and so reports cell mass.

Series [3] concerns MDA-MB-231, MDA-MB-468, 4T1, and MCF7 cells. Nature of the series: SRB cytotoxicity assay, all four breast cancer cell lines. The series is classed as cell-based. The conditions noted are these: over the four breast cancer cell lines; read-out: IC50 span over all treatments. How it is done: as §1, §2
For series [4], the system named is MCF7 cells. Nature of the series: SRB cytotoxicity assay, MCF7 cells. In kind it is cell-based. As to conditions: Homo sapiens, 48 h incubation (Figure 3 legend: 72 h). As to the method:
as §1, §2

Series [5] has as its system 4T1 cells. Nature of the series: SRB cytotoxicity assay, 4T1 cells. In kind it is cell-based, murine. As to conditions: Mus musculus, 48 h incubation (Figure 3 legend: 72 h). As to the method:
as §1, §2

Series [6] relates to murine bone marrow cells. Set-up: method as in PMID 12110316. The conditions noted are these: cited from earlier work.
Series [7] has as its system MDA-MB-231 cells. Nature of the series: SRB cytotoxicity assay, MDA-MB-231 cells. The series is classed as cell-based. The conditions noted are these: Homo sapiens, 48 h incubation (Figure 3 legend: 72 h). As to the method:
as §1, §2

With `COc1cc2cc(C(=O)N3CC(CCl)c4c3cc(O)c3ccoc43)[nH]c2c(OC)c1OC` (stereo not shown) [TFA, tafuramycin A], the Body weight changes result in series [1] was “not associated with any statistically significant weight loss; also recorded: no significant weight loss”. For the same compound, the IC50 in series [2] is 18.3 nM; in series [3], 4.55 to 20.2 nM; in series [4], 4.55 nM; in series [5] it was 5.9 nM; in series [7], 4.6 nM. Further, the “Toxicity against murine bone marrow cells” value in series [6] is listed as “only mild toxicity”.
